Data reported in patent publication US20240156791A1, “METHODS OF TREATING SPINAL CORD INJURY OR DAMAGE” (Spinogenix, Inc., priority 2021, published 2024).

System: rat C2 hemisection (C2HS) model of spinal cord injury
Experiment: rat C2 hemisection (C2HS) model of spinal cord injury, recovery monitored by diaphragm EMG
Format: in vivo
Method: A representative compound of this disclosure, Compound 1, was used in treating spinal cord injury in rats. The rat C2 hemisection (C2HS) model of spinal cord injury was used in this experiment. The spinal cord injury was modeled in rats by hemi-section at the level of C2 followed by monitoring of lesion and recovery was conducted by one of the following methods: diaphragm EMG, transdiaphragmatic pressure, and ventilatory behaviors.
Seven rats were treated with Compound 1 (30 mg/kg) and 8 rats were treated with a vehicle (0.5% DMSO in phosphate buffered saline) for 14 days and their recovery was monitored. […] Also, the magnitude of recovery was an average 54% among recovered compound-treated rats as compared to vehicle-treated rats.
Similar experiment was carried out separately using 4 rats and it provided similar results as those described above.

[1] = separate similar experiment using 4 rats

## OCCOCCOCCOCCOc1ccc(-c2nc3ccccc3s2)cc1 [Compound 1]
30 mg/kg for 14 days
  recovery compared with brain derived neurotrophic factor approaches: greater than that seen for brain derived neurothrophic factor approaches
30 mg/kg for 14 days, seven rats, by day 14 post lesion
  rats recovered as judged by diaphragm EMG: 86%
30 mg/kg for 14 days, diaphragm EMG
  magnitude of recovery (average) among recovered compound-treated rats as compared to vehicle-treated rats: 54%
Rats treated with compound vs vehicle (0.5% DMSO in PBS)
  recovery from spinal cord injury as judged by diaphragm EMG (FIG. 1A): enhancement of recovery
[1]
  % recovery as compared to vehicle-treated rats: greater % recovery
  magnitude of recovery as compared to vehicle-treated rats: greater magnitude of recovery
